In BindingDB's records for doi:10.7270/Q2Z036M0 (Broad Institute, 2010):

Target: T1, S-ribosylhomocysteine lyase (Vibrio harveyi, UniProt B0LUE4)
T1 sequence (B0LUE4 whole entry): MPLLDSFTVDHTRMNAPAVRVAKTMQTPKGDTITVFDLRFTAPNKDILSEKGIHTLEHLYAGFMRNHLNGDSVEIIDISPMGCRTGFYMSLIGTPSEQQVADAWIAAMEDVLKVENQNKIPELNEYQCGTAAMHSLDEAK
Experiment: modulation of V. harveyi AI-2 signalling – luminescence, dose retest, Vibrio harveyi, confirmation (AID 2724)

SMILES | EC50
Cn1cnc(S(=O)(=O)Nc2ccc(OC(F)(F)F)cc2)c1 [SMR000314513] | 4390 nM
CN(C)S(=O)(=O)c1ccc(NC(=S)NC(=O)Cc2ccccc2)cc1 [N-[[4-(dimethylsulfamoyl)phenyl]carbamothioyl]-2-phenyl-ethanamide] | > 160000 nM
COc1cc(NC(=O)CN2C(=O)NC(c3ccccc3)(c3ccccc3)C2=O)cc(OC)c1 [MLS001176525] | 1570 nM
Cc1cccc(NS(=O)(=O)c2ccc(Oc3ccccc3)cc2)n1 [SMR000071466] | 2560 nM
C=Cn1c(C(=O)O)ccc1-c1ccc(CC)cc1 | 2070 nM
CCCc1ccc(S(=O)(=O)N(C)S(=O)(=O)c2ccc(F)cc2)cc1 [N-(4-fluorophenyl)sulfonyl-N-methyl-4-propylbenzenesulfonamide] | 1620 nM
CCc1ccc(S(=O)(=O)Nc2ccc(Br)cn2)cc1 [MLS001211346] | 3640 nM
